In PMC5653818, “A Brain Penetrant Mutant IDH1 Inhibitor Provides In Vivo Survival Benefit” (Scientific Reports, 2017) one finds IC50 data, which are given here for one compound.

For this assay, the target named is IDH1 R132H (mutant isocitrate dehydrogenase 1) (Homo sapiens, UniProt O75874, R132H). The assay can be described thus: coupled enzymatic assay (GAPDH/PGK/luciferase luminescence) with R132H IDH1 enzyme. It counts as biochemical.

SMILES strings stand for the structures.

Sequence of IDH1 R132H (mutant isocitrate dehydrogenase 1) (O75874 2-414 R132H): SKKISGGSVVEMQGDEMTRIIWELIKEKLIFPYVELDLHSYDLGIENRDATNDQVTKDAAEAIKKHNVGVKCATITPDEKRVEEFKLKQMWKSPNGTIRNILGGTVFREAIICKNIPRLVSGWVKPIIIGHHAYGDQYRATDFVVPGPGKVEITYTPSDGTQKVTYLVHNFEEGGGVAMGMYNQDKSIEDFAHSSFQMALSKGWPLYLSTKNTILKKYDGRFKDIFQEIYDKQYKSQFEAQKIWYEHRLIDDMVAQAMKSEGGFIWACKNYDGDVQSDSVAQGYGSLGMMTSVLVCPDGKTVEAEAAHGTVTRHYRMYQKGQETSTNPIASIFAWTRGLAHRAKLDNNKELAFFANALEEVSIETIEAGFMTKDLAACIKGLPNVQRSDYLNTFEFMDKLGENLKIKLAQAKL

What is called IC50 is the midpoint of a concentration-inhibition curve. Low values mean higher potency, high ones lower potency. On to `O=C(C1CCc2ccccc2CC1)N1Cc2cccnc2Nc2ccc(N3CCOCC3)cc21` [MRK-A], for which the half-maximal inhibitory concentration (IC50) worked out at 5 nM.
